Experimental data reported in ChEMBL document CHEMBL1681682, “Synthesis and hydrolytic evaluation of acid-labile imine-linked cytotoxic isatin model systems” (Bioorg Med Chem, 2011).

Assay: Stability of the compound assessed as half life in 1M sodium acetate buffer of pH 4.5 at 37 degC
Format: physicochemical

SMILES | half-life [min]
COC(=O)[C@H](CCCCNC(=O)Cc1cccc(N=C2C(=O)N(Cc3ccc(OC)cc3)c3c(Br)cc(Br)cc32)c1)NC(C)=O (mixture of isomers) | 33
COC(=O)[C@H](CCCCNC(=O)Cc1ccc(N=C2C(=O)N(Cc3ccc(OC)cc3)c3c(Br)cc(Br)cc32)cc1)NC(C)=O (mixture of isomers) | 23
